For the first assay, the target named is Human TASK-1 channels (Homo sapiens (Human), UniProt O14649). The assay is described as follows: Determination of the activity on the TASK-1 channel in Xenopus oocytes (two-microelectrode voltage clamp). To be noted: compound concentration 5 μM. The class given is cell-based. The procedure, abridged:
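Xenopus oocytes were injected with human TASK-1 cRNA and recorded two days later by two-microelectrode voltage clamp, holding at −90 mV with 500 ms steps to 40 mV. Superfusion used ND96, pH 7.4, at room temperature, with rising compound concentrations; percentage inhibition of control current was fitted to a dose-response curve for IC50.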
Human TASK-1 channels, sequence (O14649 whole entry, the tested form may be a part): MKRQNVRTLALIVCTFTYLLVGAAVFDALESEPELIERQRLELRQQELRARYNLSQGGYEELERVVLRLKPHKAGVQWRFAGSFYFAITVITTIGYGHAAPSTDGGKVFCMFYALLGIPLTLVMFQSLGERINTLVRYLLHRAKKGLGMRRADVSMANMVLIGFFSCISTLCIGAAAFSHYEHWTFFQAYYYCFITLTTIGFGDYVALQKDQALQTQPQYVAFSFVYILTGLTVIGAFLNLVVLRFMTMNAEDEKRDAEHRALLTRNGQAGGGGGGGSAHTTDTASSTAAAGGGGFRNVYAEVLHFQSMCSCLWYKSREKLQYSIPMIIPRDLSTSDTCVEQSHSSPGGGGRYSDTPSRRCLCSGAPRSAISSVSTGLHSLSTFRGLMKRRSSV
What is called inhibition is the relative decrease from the control value, in per cent. High values mean a strong effect, low ones a weak effect. As for `CC[C@H](NC(=O)c1cc(C(=O)N[C@H](C)c2ncccn2)c2n1CCOC2)c1ccccc1` [16kg, 3,4-Dihydro-1H-pyrrolo[2,1-c][1,4]oxazine-6,8-dicarboxylic acid 6-[((S)-1-phenyl-propyl)-amide] 8-[((R)-1-pyrimidin-2-yl-ethyl)-amide]], the inhibition at 5 µM amounted to 70%.

In turn, `C[C@H]1CCCN1C(=O)c1cc(C(=O)NCc2c(F)cc(F)cc2F)c2n1CCOC2` [16af, 6-((S)-2-Methyl-pyrrolidine-1-carbonyl)-3,4-dihydro-1H-pyrrolo[2,1-c][1,4]oxazine-8-carboxylic acid 2,4,6-trifluoro-benzylamide] returned an inhibition at 5 µM of 78%.

In the case of `CC[C@@H](NC(=O)c1cc(C(=O)N2CCC[C@@H]2C)n2c1COCC2)c1cncc(C(F)(F)F)c1` [16bk, 6-((S)-2-Methyl-pyrrolidine-1-carbonyl)-3,4-dihydro-1H-pyrrolo[2,1-c][1,4]oxazine-8-carboxylic acid [(R)-1-(5-trifluoromethyl-pyridin-3-yl)-propyl]-amide], testing at 5 µM gave an inhibition of 53%.

`C[C@@H](NC(=O)c1cc(C(=O)NCC2CC2)c2n1CCOC2)c1ccc(F)cc1` [16ds, 3,4-Dihydro-1H-pyrrolo[2,1-c][1,4]oxazine-6,8-dicarboxylic acid 8-cyclopropylmethyl-amide 6-{[(R)-1-(4-fluoro-phenyl)-ethyl]-amide}] showed an inhibition at 5 µM of 89%.

Turning to `C[C@@H](NC(=O)c1cc(C(=O)NCC(F)(F)F)c2n1CCOC2)c1ccc(F)cc1` [16dr, 3,4-Dihydro-1H-pyrrolo[2,1-c][1,4]oxazine-6,8-dicarboxylic acid 6-{[(R)-1-(4-fluoro-phenyl)-ethyl]-amide} 8-[(2,2,2-trifluoro-ethyl)-amide]], 5 µM produced 84% inhibition.

For the molecule `CC[C@@H](NC(=O)c1cc(C(=O)N2CCC[C@@H]2C)c2n1CCOC2)c1ccc(C#N)cc1` [16nl, 8-((S)-2-Methyl-pyrrolidine-1-carbonyl)-3,4-dihydro-1H-pyrrolo[2,1-c][1,4]oxazine-6-carboxylic acid [(R)-1-(4-cyano-phenyl)-propyl]-amide], the inhibition at 5 µM stood at 70%.

Still in this assay, the particulars now being: human TASK-1 expressed in Xenopus oocytes, room temperature; read-out: IC50 value for TASK-1 inhibition.
What is called IC50 is the concentration that gives 50% inhibition. For the molecule `CC[C@@H](NC(=O)c1cc(C(=O)N2CCC[C@@H]2C)n2c1COCC2)c1cnc(C(F)(F)F)c(OC)c1` [16cw, 6-((S)-2-Methyl-pyrrolidine-1-carbonyl)-3,4-dihydro-1H-pyrrolo[2,1-c][1,4]oxazine-8-carboxylic acid [(R)-1-(5-methoxy-6-trifluoromethyl-pyridin-3-yl)-propyl]-amide], the IC50 came to 2400 nM.

For the molecule `CC[C@@H](NC(=O)c1cc(C(=O)NC(C)COC)n2c1COCC2)c1ccccc1` (stereo partly drawn) [16gg, 3,4-Dihydro-1H-pyrrolo[2,1-c][1,4]oxazine-6,8-dicarboxylic acid 6-[(2-methoxy-1-methyl-ethyl)-amide] 8-[((R)-1-phenyl-propyl)-amide]], the concentration for half-maximal inhibition (IC50) is 230 nM.

Regarding `CC[C@@H](NC(=O)c1cc(C(=O)N2CCC[C@@H]2C)n2c1COCC2)c1ccc(F)cc1F` [16v, 6-((S)-2-Methyl-pyrrolidine-1-carbonyl)-3,4-dihydro-1H-pyrrolo[2,1-c][1,4]oxazine-8-carboxylic acid [(R)-1-(2,4-difluoro-phenyl)-propyl]-amide], the IC50 stood at 110 nM.

Regarding `C[C@@H](NC(=O)c1cc(C(=O)N2CCC[C@@H]2C(F)(F)F)c2n1CCOC2)c1ccc(F)cc1` [16dk, 8-((R)-2-Trifluoromethyl-pyrrolidine-1-carbonyl)-3,4-dihydro-1H-pyrrolo[2,1-c][1,4]oxazine-6-carboxylic acid [(R)-1-(4-fluoro-phenyl)-ethyl]-amide], the IC50 turned out to be 160 nM.

Consider `CC[C@@H](NC(=O)c1cc(C(=O)N2CCC[C@@H]2C)n2c1COCC2)c1ccccc1Cl` [16q, 6-((S)-2-Methyl-pyrrolidine-1-carbonyl)-3,4-dihydro-1H-pyrrolo[2,1-c][1,4]oxazine-8-carboxylic acid [(R)-1-(2-chloro-phenyl)-propyl]-amide], for which the IC50 was found to be 64 nM.

`CCOC(=O)C[C@H]1CCCN1C(=O)c1cc(C(=O)N[C@H](C)c2ccc(F)cc2)n2c1COCC2` [16dl, ((R)-1-{6-[(R)-1-(4-Fluoro-phenyl)-ethylcarbamoyl]-3,4-dihydro-1H-pyrrolo[2,1-c][1,4]oxazine-8-carbonyl}-pyrrolidin-2-yl)-acetic acid ethyl ester]: the IC50 was 62 nM.

`CC[C@@H](NC(=O)c1cc(C(=O)N[C@H](CC)c2cccc(OC)n2)n2c1COCC2)c1ccc(C(F)(F)F)nc1` [16pb, 3,4-Dihydro-1H-pyrrolo[2,1-c][1,4]oxazine-6,8-dicarboxylic acid 6-{[(R)-1-(6-methoxy-pyridin-2-yl)-propyl]-amide} 8-{[(R)-1-(6-trifluoromethyl-pyridin-3-yl)-propyl]-amide}]: the IC50 came out at 520 nM.

On to `CC[C@@H](NC(=O)c1cc(C(=O)N2CCOCC2)n2c1CCCC2)c1ccccc1` [16nc, 3-(Morpholine-4-carbonyl)-5,6,7,8-tetrahydro-indolizine-1-carboxylic acid ((R)-1-phenyl-propyl)-amide], for which the IC50 is 2000 nM.

In the case of `CC[C@@H](NC(=O)c1cc(C(=O)NCc2ncco2)n2c1COCC2)c1ccccc1` [16ha, 3,4-Dihydro-1H-pyrrolo[2,1-c][1,4]oxazine-6,8-dicarboxylic acid 6-[(oxazol-2-ylmethyl)-amide] 8-[((R)-1-phenyl-propyl)-amide]], the IC50 was 350 nM.

Turning to `CC[C@@H](NC(=O)c1cc(C(=O)N2CCC[C@@H]2C)n2c1COCC2)c1cccc(C#N)c1` [16aj, 6-((S)-2-Methyl-pyrrolidine-1-carbonyl)-3,4-dihydro-1H-pyrrolo[2,1-c][1,4]oxazine-8-carboxylic acid [(R)-1-(3-cyano-phenyl)-propyl]-amide], the IC50 was found to be 550 nM.

As for `CCC(NC(=O)c1cc(C(=O)N[C@H](CC)c2ccccc2)c2n1CCOC2)c1cnc(OC)nc1` (single isomer, unassigned) [16hu], the IC50 is 620 nM.

For `CC[C@H](NC(=O)c1cc(C(=O)N[C@H](CC)c2ccccc2)c2n1CCOC2)c1cnccn1` [16hx, 3,4-Dihydro-1H-pyrrolo[2,1-c][1,4]oxazine-6,8-dicarboxylic acid 8-[((R)-1-phenyl-propyl)-amide] 6-[((S)-1-pyrazin-2-yl-propyl)-amide]], the IC50 turned out to be 57 nM.

Regarding `CC[C@@H](NC(=O)c1cc(C(=O)N2CCC[C@@H]2C(C)C)c2n1CCOC2)c1ccccc1` [16kl, 8-((R)-2-Isopropyl-pyrrolidine-1-carbonyl)-3,4-dihydro-1H-pyrrolo[2,1-c][1,4]oxazine-6-carboxylic acid ((R)-1-phenyl-propyl)-amide], the concentration for half-maximal inhibition (IC50) was found to be 210 nM.

As to `CC[C@@H](NC(=O)c1cc(C(=O)N2CCC[C@@H]2C)n2c1COCC2)c1ccc(C(F)(F)F)c(F)c1` [16bm, 6-((S)-2-Methyl-pyrrolidine-1-carbonyl)-3,4-dihydro-1H-pyrrolo[2,1-c][1,4]oxazine-8-carboxylic acid [(R)-1-(3-fluoro-4-trifluoromethyl-phenyl)-propyl]-amide], the IC50 stood at 93 nM.

On to `CC[C@@H](NC(=O)c1cc(C(=O)N[C@H](C)c2ccc(F)cc2)n2c1SCC2)c1ccccc1` [16kt, 2,3-Dihydro-pyrrolo[2,1-b]thiazole-5,7-dicarboxylic acid 5-{[(R)-1-(4-fluoro-phenyl)-ethyl]-amide} 7-[((R)-1-phenyl-propyl)-amide]], for which the IC50 was 27 nM.

With `CC[C@@H](NC(=O)c1cc(C(=O)NC(C)c2ncccn2)n2c1COCC2)c1ccccc1Cl` (stereo partly drawn) [16nr, 3,4-Dihydro-1H-pyrrolo[2,1-c][1,4]oxazine-6,8-dicarboxylic acid 8-{[(R)-1-(2-chloro-phenyl)-propyl]-amide} 6-[(1-pyrimidin-2-yl-ethyl)-amide]], the IC50 was 310 nM.

Consider `CC[C@H](NC(=O)c1cc(C(=O)N[C@H](CC)c2ccccc2)n2c1COCC2)c1ncccn1` [16ke, 3,4-Dihydro-1H-pyrrolo[2,1-c][1,4]oxazine-6,8-dicarboxylic acid 6-[((R)-1-phenyl-propyl)-amide] 8-[((S)-1-pyrimidin-2-yl-propyl)-amide]], for which the half-inhibitory concentration (IC50) came out at 220 nM.

Regarding `CCOC(=O)[C@H](C)N(C)C(=O)c1cc(C(=O)N[C@H](CC)c2ccccc2)c2n1CCOC2` [16l, (S)-2-{Methyl-[8-((R)-1-phenyl-propylcarbamoyl)-3,4-dihydro-1H-pyrrolo[2,1-c][1,4]oxazine-6-carbonyl]-amino}-propionic acid ethyl ester], the IC50 is 170 nM.

On to `CCOC(=O)CN(C)C(=O)c1cc(C(=O)N[C@H](CC)c2ccccc2)c2n1CCOC2` [16iy, {Methyl-[8-((R)-1-phenyl-propylcarbamoyl)-3,4-dihydro-1H-pyrrolo[2,1-c][1,4]oxazine-6-carbonyl]-amino}-acetic acid ethyl ester], for which the IC50 was 270 nM.

Turning to `CC[C@@H](NC(=O)c1cc(C(=O)N2CCC[C@@H]2C)n2c1COCC2)c1ccc(OC)c(Cl)c1` [16ch, 6-((S)-2-Methyl-pyrrolidine-1-carbonyl)-3,4-dihydro-1H-pyrrolo[2,1-c][1,4]oxazine-8-carboxylic acid [(R)-1-(3-chloro-4-methoxy-phenyl)-propyl]-amide], the IC50 turned out to be 73 nM.

Consider `CC[C@@H](NC(=O)c1cc(C(=O)NCc2nccs2)c2n1CCOC2)c1ccccc1` [16jt, 3,4-Dihydro-1H-pyrrolo[2,1-c][1,4]oxazine-6,8-dicarboxylic acid 6-[((R)-1-phenyl-propyl)-amide] 8-[(thiazol-2-ylmethyl)-amide]], for which the half-inhibitory concentration (IC50) is 150 nM.

Take `CC[C@@H](NC(=O)c1cc(C(=O)NCc2nccs2)n2c1COCC2)c1ccccc1` [16il, 3,4-Dihydro-1H-pyrrolo[2,1-c][1,4]oxazine-6,8-dicarboxylic acid 8-[((R)-1-phenyl-propyl)-amide] 6-[(thiazol-2-ylmethyl)-amide]]: the IC50 stood at 170 nM.

Regarding `CC[C@@H](NC(=O)c1cc(C(=O)NC2CCCc3nccnc32)n2c1COCC2)c1ccccc1` (stereo partly drawn) [16io, 3,4-Dihydro-1H-pyrrolo[2,1-c][1,4]oxazine-6,8-dicarboxylic acid 8-[((R)-1-phenyl-propyl)-amide] 6-[(5,6,7,8-tetrahydro-quinoxalin-5-yl)-amide]], the IC50 worked out at 940 nM.
